In patent US20240352487A1, “MTOR -TARGETED MODIFICATION AND USES THEREOF” (UNIVERSITÉ LAVAL, priority 2021, published 2024):
Entries after “also recorded” stand apart in the source; their conditions may differ.

Assays:
mTORC1 signaling = test: mSc-TOSI mTORC1 signaling assay (FACS) in K562 cells; format: cell-based, human
Experimental: (A) Schematic representation of the mScarlet-I mTOR Signaling Indicator (mSc-TOSI) degradation under mTORC1 signaling. (B) mSc-TOSI fluorescence intensity in bulk populations of K562 cells stably expressing the mTORC1 signaling reporter. Where indicated, cells were treated with the indicated concentration of mTOR inhibitor for 24 hours before FACS analysis.
(A) Schematic representation of the mScarlet-I mTOR Signaling Indicator (mSc-TOSI) degradation under mTORC1 signaling. (B) mSc-TOSI fluorescence intensity in homozygous single cell-derived K562 clones harboring the MTOR-F2108L mutation with or without targeted CAR integration. Single cell-derived K562 clones were isolated in methylcellulose-based semi-solid RPMI media supplemented with 100 μM ouabain. Where indicated, cells were treated with the indicated concentration of mTOR inhibitor for 24 hours before FACS analysis.
Active mTORC1 signaling results in rapid phosphorylation of the mSc-TOSI phosphodegron by S6K, ubiquitination, and degradation by the proteasome while its inhibition stabilizes the reporter.
The percentage of fluorescent cells was quantified using a BD LSRII flow cytometer and 1×10^5 cells were analyzed for each condition. […] For mTORC1 signaling assays, cells were treated with the indicated concentration of rapamycin or AZD8055 for 24 hours before analysis. FACS sorting was performed using a BD FACS Aria Fusion flow cytometer for the saturation prime editing experiment and 5×10^5 cells were sorted for each condition. Flow cytometric data visualization and analysis were performed using FlowJo™ software (Tree Star).
We then adapted a fluorescent mTORC1 signaling indicator^34 (mSc-TOSI) to assess the impact of rapamycin on mTORC1 signaling after targeted transgene integration to the MTOR locus. Active mTORC1 signaling results in rapid phosphorylation of the mSc-TOSI phosphodegron by S6K, ubiquitination, and degradation by the proteasome while its inhibition stabilizes the reporter^34 (FIG. 5A). We treated bulk populations of cells harboring the MTOR-F2108L mutation with or without targeted therapeutic transgene integration at the MTOR locus with different concentrations of rapamycin and AZD8055, a second-generation mTOR inhibitor.

[1] = test system: metastatic anaplastic thyroid carcinoma; conditions: patient with metastatic anaplastic thyroid carcinoma; cited from earlier work
K562 cells = test: K562 cell growth in the presence of rapamycin; format: cell-based, human
Experimental: (A) Prime editing and small indels quantification at MTOR as determined by BEAT and TIDE analysis from Sanger sequencing. K562 cells stably expressing the mSc-TOSI reporter were transfected with 0.75 μg of pCMV-PEmax vector, 0.25 μg of epegRNA (tevopreQ1) vector, and 0.1 μg of nick sgRNA vector. Genomic DNA was harvested 3 days post-transfection (before selection) and cells were treated (rapamycin) or not (vehicle) with 0.5 μM rapamycin until all non-resistant cells were eliminated.
K562 cells were obtained from the ATCC (CCL-243) and NALM6 cells stably transduced to express a FLUC-T2A-RFP-IRES-Puro reporter gene cassette (Biosettia). K562 and NALM6 cells were maintained at 37° C. under 5% CO2 in RPMI medium supplemented with 10% FBS, penicillin-streptomycin, and GlutaMAX. Cells were routinely tested for the absence of mycoplasma contamination. Rapamycin (Cayman Chemicals, Cat 53123-88-9) was dissolved at 10 mg/mL in DMSO, working dilutions were prepared in water and stored at −20° C. AZD8055 ([…] Technologies) was dissolved at 10 mM in DMSO, working dilutions were prepared in water and stored at −20° C. DMSO alone was diluted in water and used as vehicle control. Ouabain octahydrate (Sigma) was dissolved at […] in hot water, working dilutions were prepared in water and stored at −20° C. K562 cells (2×10^5 cells/transfection) were transfected using a Lonza 4D Nucleofector™ with a SF nucleofection kit (Lonza) following manufacturer's recommendations with the indicated DNA concentrations. Cells were treated with the indicated concentration of rapamycin 3 days post-nucleofection until all non-resistant cells were eliminated. For the isolation of single cell-derived clones, simultaneous coselection and cloning was performed in methylcellulose-based semi-solid RPMI medium supplemented with 100 μM ouabain for 10 days.
We then designed epegRNAs to validate the new MTOR-F2108 mutations individually. […] These observations confirmed that the five new mutations identified by saturation prime editing conferred resistance to rapamycin.

MTOR locus [2] = test: F2108L edited alleles in CD3+ T cells after rapamycin selection, TIDER; format: cell-based, human; conditions: 2 μg dsDNA donor, after rapamycin selection 15 days
Excerpt: (A) Strategy for the CRISPR-driven insertion of the F2108L mutation to the MTOR locus using a linear double-stranded DNA (dsDNA) donor. (B) Schematic representation of the SpCas9 target site and the dsDNA donor sequence harboring the F2108L and PAM mutations (WT sequence: 5′ portion corresponds to SEQ ID NO: 45 and 3′ portion corresponds to SEQ ID NO: 46; G49 donor: 5′ portion corresponds to SEQ ID NO: 47 and 3′ portion corresponds to SEQ ID NO: 48). […] The percentage of edited alleles was quantified by TIDER after selection.
Receptor dimerization is induced with rapamycin. […] HA, homology arm. PA, polyadenylation signal. EGFP, enhanced green fluorescent protein. 2A self-cleaving peptide.
dsDNA donors were produced as described previously^24. The donor sequences were cloned into a cloning vector and PCR amplification (25 cycles) was performed using Kapa-HiFi polymerase. DNA purification was performed by solid-phase reversible immobilization using AMPure XP (Beckman Coulter) magnetic beads. […]
Genomic DNA was extracted with QuickExtract DNA extraction solution (EpiCentre) following manufacturer's recommendations. […] Sanger sequencing was performed on PCR amplicons to quantify the percentage of edited alleles using TIDE and TIDER^28,29. […]

MTOR locus [3] = test: Transgene knock-in at MTOR in CD3+ T cells, FACS quantification; format: cell-based, human
Excerpt: (A) Strategy for CRISPR-driven mScarlet-I gene knock-in to the MTOR locus using a linear double-stranded DNA (dsDNA) donor. […] The percentage of cells expressing the mScarlet-I reporter was quantified by FACS after selection. HA, homology arm. PA, polyadenylation signal. EGFP, enhanced green fluorescent protein. 2A self-cleaving peptide.
(A) Strategy for the CRISPR-driven CAR-2A-EGFP gene knock-in to the MTOR locus using a linear double-stranded DNA (dsDNA) donor. […] The percentage of cells expressing the EGFP reporter was quantified by FACS after selection. HA; homology arm. PA; polyadenylation signal. EGFP; enhanced green fluorescent protein. 2A self-cleaving peptide.
The percentage of cells expressing the EGFP reporter was quantified by FACS after selection. HA, homology arm. PA, polyadenylation signal. EGFP, enhanced green fluorescent protein. 2A self-cleaving peptide.
dsDNA donors were produced as described previously^24. The donor sequences were cloned into a cloning vector and PCR amplification (25 cycles) was performed using Kapa-HiFi polymerase. DNA purification was performed by solid-phase reversible immobilization using AMPure XP (Beckman Coulter) magnetic beads. For ribonucleoprotein complex (RNP) formulation, 100 pmols of sgRNAs (IDT) were mixed with 0.8 μL of 100 mg/mL polyglutamic acid (Sigma) and 50 pmols of SpCas9 nuclease (IDT), as previously described^27. The RNP mix was incubated at 37° C. for 10 minutes and the dsDNA donors were added to the mix and incubated at room temperature for 5 minutes before transfection. Primary CD3^+ T cells (1×10^6 cells/transfection) were transfected using a Lonza 4D Nucleofector™ with a P3 nucleofection kit (Lonza) following manufacturer's recommendations with the indicated DNA concentrations. CD3+ T cells were resuspended in 80 μL media without IL-2 directly after nucleofection and incubated at 37° C. for 15 minutes before transfer into culture media plates. For AAV6 transduction, CD3+ T cells were resuspended in 80 μL media directly after nucleofection and AAV6 vectors were added. Cells were incubated at 37° C. for 8 hours at high cell density before transfer into culture media plates.
The percentage of fluorescent cells was quantified using a BD LSRII flow cytometer and 1×10^5 cells were analyzed for each condition. For antibody staining, K562 cells were incubated with Fc receptor block (eBioscience Cat 16-9161-73) for 20 minutes on ice with PBS and 3% human serum (Sigma). Anti-human CD34 Alexa Fluor 488-conjugated antibody clone QBEnd10 (R and D systems Cat FAB7227G) and anti-human CD52 FITC-conjugated antibody clone HI186 were used for RQR8 and CD52 quantification, respectively. For mTORC1 signaling assays, cells were treated with the indicated concentration of rapamycin or AZD8055 for 24 hours before analysis. […]

MTOR locus [4] = test: Transgene knock-in at MTOR in K562 cells, FACS quantification; format: cell-based, human; conditions: Rapamycin-treated K562 cells, FACS with antibody staining
Experimental: (A) Strategy for the CRISPR-driven CAR-2A-EGFP gene knock-in to the MTOR locus using a plasmid donor. (B) K562 cells were transfected with 0.5 μg of SpCas9-sgRNA-expressing plasmid and 1 μg of donor plasmid. Cells were treated with 0.5 μM rapamycin 3 days post-transfection until all non-resistant cells were eliminated. The percentage of cells expressing the EGFP reporter was quantified by FACS after selection. HA; homology arm. PA; polyadenylation signal. EGFP; enhanced green fluorescent protein. 2A self-cleaving peptide.
(A) Strategy for the CRISPR-driven RQR8 gene knock-in to the MTOR locus using a plasmid donor. (B) K562 cells were transfected with 0.5 μg of SpCas9-sgRNA-expressing plasmid and 1 μg of donor plasmid harboring. […] The percentage of cells expressing the RQR8 epitope marker was quantified by FACS after selection using an Alexa Fluor 488-conjugated anti-human CD34 antibody. […] (D) Same as in B, but the percentage of cells expressing CD52 was quantified using a FITC-conjugated anti-human CD52 antibody. […]
The percentage of fluorescent cells was quantified using a BD LSRII flow cytometer and 1×10^5 cells were analyzed for each condition. […] Anti-human CD34 Alexa Fluor 488-conjugated antibody clone QBEnd10 (R and D systems Cat FAB7227G) and anti-human CD52 FITC-conjugated antibody clone HI186 were used for RQR8 and CD52 quantification, respectively. […]

COc1ccc(-c2ccc3c(N4CCOC[C@@H]4C)nc(N4CCOC[C@@H]4C)nc3n2)cc1CO [AZD8055]
sensitivity of mTORC1 signaling to inhibitor (mTORC1 signaling; CRISPR-engineered K562 cells harboring MTOR-F2108L, 24 hours): remained sensitive

CO[C@H]1C[C@@H]2CC[C@@H](C)[C@@](O)(O2)C(=O)C(=O)N2CCCC[C@H]2C(=O)O[C@H]([C@H](C)C[C@@H]2CC[C@@H](OCCO)[C@H](OC)C2)CC(=O)[C@H](C)/C=C(\C)[C@@H](O)[C@@H](OC)C(=O)[C@H](C)C[C@H](C)/C=C/C=C/C=C/1C [everolimus]
response duration before relapse [1]: 18 month

CO[C@H]1C[C@@H]2CC[C@@H](C)[C@@](O)(O2)C(=O)C(=O)N2CCCC[C@H]2C(=O)O[C@H]([C@H](C)C[C@@H]2CC[C@@H](O)[C@H](OC)C2)CC(=O)[C@H](C)/C=C(\C)[C@@H](O)[C@@H](OC)C(=O)[C@H](C)C[C@H](C)/C=C/C=C/C=C/1C [rapamycin, Rapamycin]
mTORC1 signaling (mTORC1 signaling; K562 cells after prime editing (F2108L) and selection, different concentrations of rapamycin): remained functional
mTORC1 signaling (mTORC1 signaling; K562 with F2108L mutation): complete rapamycin resistance
mTORC1 signaling (mTORC1 signaling; K562 with F2108V and F2108K): low levels of signaling
mTORC1 signaling (mTORC1 signaling; K562 with F21081, F2108M, and F2108G): intermediate levels of signaling
mTORC1 signaling (mTORC1 signaling; K562 without epegRNA (pUC19) and with silent F2108F mutation): complete mTORC1 signaling inhibition
mTORC1 signaling (mTORC1 signaling; MTOR-F2108L homozygous K562 clones with or without CAR integration, rapamycin treatment): remained completely functional
mTORC1 signaling (mTORC1 signaling; adenine base edited K562 cells, in the presence of rapamycin): very low levels of mTORC1 signaling
mTORC1 signaling (mTORC1 signaling; bulk K562 cells harboring MTOR-F2108L with or without transgene integration, 50 nM to 5 000 nM rapamycin, 24 hours): functional mTORC1 signaling; also recorded: slight mTORC1 signaling decrease
resistance of cells to rapamycin (K562 cells; ABE8e-targeted K562 cells): partial resistance
cell growth (K562 cells; K562 cells harboring MTOR-F2108 substitutions, 0.5 μM rapamycin): grew robustly
resistance of cells to rapamycin (K562 cells; K562 cells with silent F2108F mutation, 0.5 μM rapamycin): no resistance

G49: gRNA, MTOR-Intron 45, target AGGTAGGATCTTCAGGCTCC (SEQ ID NO: 6); used as SpCas9 RNP with donor (listed as DNA, chemistry not given here; listed as Homo sapiens)
alleles harboring the F2108L mutation (MTOR locus [2]): up to 63%
alleles harboring the PAM mutation (MTOR locus [2]): ≤ 69%
percentage of CD3+ T cells expressing the mScarlet-I reporter (MTOR locus [3]; 1 μg dsDNA donor, after rapamycin selection 8 days): 21%
percentage of CD3+ T cells expressing the mScarlet-I reporter (MTOR locus [3]; 1 μg dsDNA donor, without selection): 11%
percentage of CD3+ T cells expressing the mScarlet-I reporter (MTOR locus [3]; 2 μg dsDNA donor, after rapamycin selection 8 days): 31%
percentage of CD3+ T cells expressing the mScarlet-I reporter (MTOR locus [3]; 2 μg dsDNA donor, without selection): 18%

RQR8: 136-amino-acid epitope-based marker/suicide gene targeted to MTOR with plasmid donor (SEQ ID NO: 26)
transgene expression (MTOR locus [4]): higher transgene expression
